Experimental data published in PubChem BioAssay AID2060900 (Molecular Pharmacology Branch, DTP, NCI, 2025).
pIC50: −log10 of the molar value.

System: 521955-158-R2-J5-PDC complex spheroids, viability
Experiment: Anticancer human tumor 521955-158-R2-J5-PDC patient-derived pancreatic carcinoma cell line growth inhibition [RAS]
Conditions: for pIC50: curve of first compound; for viability, T/C: stronger effect = lower value
Procedure, shortened: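 Agents were tested in combination matrices in half-log decrements from a top concentration at or near clinical Cmax (10 microM if undetermined). Targets were multi-cell spheroids of tumour lines plus HUVEC and MSC stromal cells.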
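Note: compound exposure lasted seven days before the viability read.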
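Throughout, for viability, T/C: spheroids also contain HUVEC endothelial cells and mesenchymal stem cells as stroma.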

CC1(C)CCC(Nc2ncc(C(F)(F)F)c(-c3c[nH]c4c(P(C)(C)=O)c(C#N)ccc34)n2)CN1 (centres undefined) + C=CC(=O)N1CCN(c2nc(OCC3CCCN3C)nc3c(F)c(-c4nc(N)cc(C)c4C(F)(F)F)c(Cl)cc23)C(C)C1
pIC50 (second compound 0.00316 µM): < 6.52
pIC50 (second compound 0.01 µM): < 6.52
pIC50 (second compound 0.0316 µM): < 6.52
pIC50 (second compound 0.1 µM): < 6.52
pIC50 (second compound 0.316 µM): < 6.52
pIC50 (second compound 1 µM): < 6.52
viability, T/C (second compound 0.00316 µM, first compound 0.000949 µM): 80.7%
viability, T/C (second compound 0.00316 µM, first compound 0.003 µM): 73.7%
viability, T/C (second compound 0.00316 µM, first compound 0.00949 µM): 67.7%
viability, T/C (second compound 0.00316 µM, first compound 0.03 µM): 51.1%
viability, T/C (second compound 0.00316 µM, first compound 0.0949 µM): 49.5%
viability, T/C (second compound 0.00316 µM, first compound 0.3 µM): 53.3%
viability, T/C (second compound 0.01 µM, first compound 0.000949 µM): 81.2%
viability, T/C (second compound 0.01 µM, first compound 0.003 µM): 78.5%
viability, T/C (second compound 0.01 µM, first compound 0.00949 µM): 52.6%
viability, T/C (second compound 0.01 µM, first compound 0.03 µM): 53%
viability, T/C (second compound 0.01 µM, first compound 0.0949 µM): 58.3%
viability, T/C (second compound 0.01 µM, first compound 0.3 µM): 60.4%
viability, T/C (second compound 0.0316 µM, first compound 0.000949 µM): 75.4%
viability, T/C (second compound 0.0316 µM, first compound 0.003 µM): 78.7%
viability, T/C (second compound 0.0316 µM, first compound 0.00949 µM): 57.5%
viability, T/C (second compound 0.0316 µM, first compound 0.03 µM): 55.8%
viability, T/C (second compound 0.0316 µM, first compound 0.0949 µM): 73%
viability, T/C (second compound 0.0316 µM, first compound 0.3 µM): 53.8%
viability, T/C (second compound 0.1 µM, first compound 0.000949 µM): 90%
viability, T/C (second compound 0.1 µM, first compound 0.003 µM): 86.3%
viability, T/C (second compound 0.1 µM, first compound 0.00949 µM): 57.9%
viability, T/C (second compound 0.1 µM, first compound 0.03 µM): 64.2%
viability, T/C (second compound 0.1 µM, first compound 0.0949 µM): 65.8%
viability, T/C (second compound 0.1 µM, first compound 0.3 µM): 56.9%
viability, T/C (second compound 0.316 µM, first compound 0.000949 µM): 84.5%
viability, T/C (second compound 0.316 µM, first compound 0.003 µM): 76.5%
viability, T/C (second compound 0.316 µM, first compound 0.00949 µM): 51.3%
viability, T/C (second compound 0.316 µM, first compound 0.03 µM): 65.3%
viability, T/C (second compound 0.316 µM, first compound 0.0949 µM): 67%
viability, T/C (second compound 0.316 µM, first compound 0.3 µM): 49.2%
viability, T/C (second compound 1 µM, first compound 0.000949 µM): 106%
viability, T/C (second compound 1 µM, first compound 0.003 µM): 77.5%
viability, T/C (second compound 1 µM, first compound 0.00949 µM): 56.3%
viability, T/C (second compound 1 µM, first compound 0.03 µM): 51.9%
viability, T/C (second compound 1 µM, first compound 0.0949 µM): 63.9%
viability, T/C (second compound 1 µM, first compound 0.3 µM): 55.4%

C=CC(=O)N1CCN(c2nc(OCC3CCCN3C)nc3c(F)c(-c4nc(N)cc(C)c4C(F)(F)F)c(Cl)cc23)C(C)C1 (centres undefined) + CCn1c(-c2cc(N3CCN(C)CC3)cnc2C(C)OC)c2c3cc(ccc31)-c1csc(n1)CC(NC(=O)C1CC1C)C(=O)N1CCCC(N1)C(=O)OCC(C)(C)C2
pIC50 (second compound 0.000949 µM): > 8.50
pIC50 (second compound 0.003 µM): > 8.50
pIC50 (second compound 0.00949 µM): > 8.50
pIC50 (second compound 0.03 µM): > 8.50
pIC50 (second compound 0.0949 µM): > 8.50
pIC50 (second compound 0.3 µM): > 8.50
viability, T/C (second compound 0.000949 µM, first compound 0.00316 µM): 42.5%
viability, T/C (second compound 0.000949 µM, first compound 0.01 µM): 43.1%
viability, T/C (second compound 0.000949 µM, first compound 0.0316 µM): 45.9%
viability, T/C (second compound 0.000949 µM, first compound 0.1 µM): 45.9%
viability, T/C (second compound 0.000949 µM, first compound 0.316 µM): 57.7%
viability, T/C (second compound 0.000949 µM, first compound 1 µM): 41%
viability, T/C (second compound 0.003 µM, first compound 0.00316 µM): 39.4%
viability, T/C (second compound 0.003 µM, first compound 0.01 µM): 36.5%
viability, T/C (second compound 0.003 µM, first compound 0.0316 µM): 46.7%
viability, T/C (second compound 0.003 µM, first compound 0.1 µM): 49.3%
viability, T/C (second compound 0.003 µM, first compound 0.316 µM): 39.9%
viability, T/C (second compound 0.003 µM, first compound 1 µM): 49.5%
viability, T/C (second compound 0.00949 µM, first compound 0.00316 µM): 35%
viability, T/C (second compound 0.00949 µM, first compound 0.01 µM): 35.4%
viability, T/C (second compound 0.00949 µM, first compound 0.0316 µM): 44.3%
viability, T/C (second compound 0.00949 µM, first compound 0.1 µM): 29.6%
viability, T/C (second compound 0.00949 µM, first compound 0.316 µM): 42%
viability, T/C (second compound 0.00949 µM, first compound 1 µM): 36.1%
viability, T/C (second compound 0.03 µM, first compound 0.00316 µM): 17.1%
viability, T/C (second compound 0.03 µM, first compound 0.01 µM): 19%
viability, T/C (second compound 0.03 µM, first compound 0.0316 µM): 22.6%
viability, T/C (second compound 0.03 µM, first compound 0.1 µM): 20.2%
viability, T/C (second compound 0.03 µM, first compound 0.316 µM): 30.7%
viability, T/C (second compound 0.03 µM, first compound 1 µM): 18.6%
viability, T/C (second compound 0.0949 µM, first compound 0.00316 µM): 16.1%
viability, T/C (second compound 0.0949 µM, first compound 0.01 µM): 11.4%
viability, T/C (second compound 0.0949 µM, first compound 0.0316 µM): 11.9%
viability, T/C (second compound 0.0949 µM, first compound 0.1 µM): 13.9%
viability, T/C (second compound 0.0949 µM, first compound 0.316 µM): 15.1%
viability, T/C (second compound 0.0949 µM, first compound 1 µM): 11.9%
viability, T/C (second compound 0.3 µM, first compound 0.00316 µM): 10.8%
viability, T/C (second compound 0.3 µM, first compound 0.01 µM): 10.2%
viability, T/C (second compound 0.3 µM, first compound 0.0316 µM): 11.3%
viability, T/C (second compound 0.3 µM, first compound 0.1 µM): 12.5%
viability, T/C (second compound 0.3 µM, first compound 0.316 µM): 15.9%
viability, T/C (second compound 0.3 µM, first compound 1 µM): 9.71%
